Experimental data reported in US11458188B2, “ABC transporter peptide inhibitor XH-14C and application thereof” (HUNAN UNIVERSITY OF SCIENCE AND ENGINEERING, priority 2020, dated 2022).
Where two headings read alike, the source gives them in different places.

Columns and labels:
parental cells (KB-3-1) = experiment: Modified MTT cytotoxicity assay, parental cells; details: Homo sapiens, KB 3-1, 72 h, read-out: IC50 (cytotoxicity), KB-3-1
[1] = system: parental cancer cell line KB-3-1; experiment: MDR reversal study (MTT), parental cancer cell line; assay type: cell-based; details: for IC50: read-out: IC50, chemotherapeutic alone
Method: (§1) The cytotoxicity of the peptide in different cell lines was measured by modified MTT assay. 5,000 cells per well were seeded in a 96-well microplate and cultured overnight. Peptides and positive control were added in a designated concentration gradient. The plate was incubated for 68 h, and then added with 20 μL of MTT solution (4 mg/mL) per well and incubated for another 4 h. The medium was pipetted, to which 100 μL of DMSO was added to dissolve the formaldehyde crystals. The absorbance was measured at 570 nm with a UV/Vis microplate spectrophotometer.

[2] = system: ABCB1-overexpressing cancer cells (KB-C2); experiment: Modified MTT cytotoxicity assay, ABCB1-overexpressing cells; details: Homo sapiens, KB-C2, 72 h, read-out: IC50 (cytotoxicity), KB-C2
Method: as §1

[3] = system: drug-induced ABCC1-overexpressing cancer cell line KB-CV60; experiment: MDR reversal study (MTT), drug-induced ABCC1-overexpressing cell line; assay type: cell-based; details: for IC50: Table 5, no reversal agent, read-out: IC50, chemotherapeutic alone
[4] = system: ABCC1-overexpressing cancer cells (KB-CV60); experiment: Modified MTT cytotoxicity assay, ABCC1-overexpressing cells; details: KB-CV60, 72 h, read-out: IC50 (cytotoxicity), KB-CV60
[5] = system: transfected ABCC1-overexpressing cell line HEK293/ABCC1; experiment: MDR reversal study (MTT), transfected ABCC1-overexpressing cell line; assay type: cell-based; details: for IC50: Table 6, no reversal agent, read-out: IC50, chemotherapeutic alone
[6] = system: transfected empty vector cell line HEK293/pcDNA3.1; experiment: MDR reversal study (MTT), transfected empty vector cell line; assay type: cell-based; details: for IC50: read-out: IC50, chemotherapeutic alone
Method: as §1

[7] = system: drug-induced ABCB1-overexpressing cancer cell line KB-C2; experiment: MDR reversal study (MTT), drug-induced ABCB1-overexpressing cell line; details: Table 3, IC50 divided by IC50 in KB-3-1
Method: as §1

[8] = system: transfected ABCB1-overexpressing cell line HEK293/ABCB1; experiment: MDR reversal study (MTT), transfected ABCB1-overexpressing cell line; details: Table 4, IC50 divided by IC50 in HEK293/pcDNA3.1
Method: as §1

## CC(=O)O[C@H]1C(=O)[C@@]2(C)[C@H]([C@H](OC(=O)c3ccccc3)[C@]3(O)C[C@H](OC(=O)[C@H](O)[C@@H](NC(=O)c4ccccc4)c4ccccc4)C(C)=C1C3(C)C)[C@]1(OC(C)=O)CO[C@@H]1C[C@@H]2O [Paclitaxel]
Parental cells (KB-3-1)
  IC50: 30 nM
[1]; Table 3, no reversal agent
  RF (resistant fold), chemotherapeutic alone: 1.00
[2]
  IC50: 1770 nM

## CC[C@]1(O)C[C@H]2CN(CCc3c([nH]c4ccccc34)[C@@](C(=O)OC)(c3cc4c(cc3OC)N(C=O)[C@H]3[C@@](O)(C(=O)OC)[C@H](OC(C)=O)[C@]5(CC)C=CCN6CC[C@]43[C@@H]65)C2)C1 [Vincristine]
[3]; Table 5, IC50 divided by IC50 in KB-3-1
  RF (resistance fold), chemotherapeutic alone: 169.05
[3]
  IC50: 16100 nM
[4]
  IC50: 16100 nM
Parental cells (KB-3-1)
  IC50: 95 nM
[5]; Table 6, IC50 divided by IC50 in HEK293/pcDNA3.1
  RF (resistance fold), chemotherapeutic alone: 19.79
[5]
  IC50: 2710 nM
[1]; Table 5, no reversal agent
  RF (resistance fold), chemotherapeutic alone: 1.00
[6]; Table 6, no reversal agent
  RF (resistance fold), chemotherapeutic alone: 1.00

## CN(C)C(=O)CCSC(SCCC(=O)O)c1cccc(/C=C/c2ccc3ccc(Cl)cc3n2)c1 (centres unmarked) [MK571]
[6]; Table 6, MK571 5 μM
  RF of Cisplatin + MK571: 0.99
  RF of Vincristine + MK571: 1.02

## N.N.[Cl][Pt][Cl] [Cisplatin]
[3]
  IC50: 2230 nM
[5]
  IC50: 2240 nM
[1]; Table 3, no reversal agent
  IC50: 1790 nM
[1]; Table 5, no reversal agent
  IC50: 1790 nM
[6]; Table 4, no reversal agent
  IC50: 2210 nM
[6]; Table 6, no reversal agent
  IC50: 2210 nM

## COc1cccc2c1C(=O)c1c(O)c3c(c(O)c1C2=O)C[C@@](O)(C(=O)CO)C[C@@H]3O[C@H]1C[C@H](N)[C@H](O)[C@H](C)O1 [Adriamycin]
[7]
  RF (resistant fold), chemotherapeutic alone: 58.84
[8]
  RF (resistance fold), chemotherapeutic alone: 25.29
[1]; Table 3, no reversal agent
  RF (resistant fold), chemotherapeutic alone: 1.00
[6]; Table 4, no reversal agent
  RF (resistance fold), chemotherapeutic alone: 1.00
